Assay in all cases: growth of human tumour cells (NCI), 48 h
Assay [1] relates to MDA-MB-435.
In assay [2] the test system is HCT-116 colon.
Assay [3] has as its system UACC-62 melanoma.
Assay [4] relates to ACHN renal.
For assay [5], the system named is UO-31 renal.
In assay [6] the test system is DU-145 prostate.
Assay [7] relates to MOLT-4 leukemia.
Assay [8] relates to IGROV1 ovarian.
Assay [9] deals with HL-60(TB) leukemia.
Assay [10] relates to LOX IMVI melanoma.

In PubChem BioAssay (NCI) one finds GI50 and TGI data, which are given here for 15 compounds.

Molecules are shown by their SMILES. “And” between values parts separate entries of the source, which are not always exact repeats. Identical values can stand only once.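 All cell lines were grown in 96-well plates and treated with compound for 48 hours. GI50: concentration for 50% inhibition of growth. The concentration for full growth arrest is given as TGI.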

With `Cc1ccc(N)cc1[As]=[As]c1cc(N)ccc1C` (stereo not given), the GI50 in assay [1] was 1.62 µM; in assay [2], 1.64 µM; in [3] it was 1.51 µM; in assay [4], 1.67 µM; in assay [5], 1.57 µM; in [6] it was 1.81 µM. Besides, the GI50 was 1.94 µM in [7], 1.88 µM in assay [8], 2.01 µM in assay [9] and 1.47 µM in assay [10]. The TGI in assay [1] is 3.25 µM; in assay [2], 3.15 µM; in assay [3] it was 3 µM; in assay [4], 3.26 µM; in assay [5], 3.03 µM; in [6], 3.23 µM. The TGI was determined as 8.82 µM in [7], 4.18 µM in assay [8], 5.8 µM in [9] and 2.88 µM in [10].

`C#C[C@@]1(O)[C@@H](CO)O[C@@H](n2cc(Br)c3c(Cl)ccnc32)[C@@H]1O`: the GI50 was 8.06 µM in [1]; 0.859 µM in assay [2]; 15.6 µM in [3]; 1.74 µM in [4]; 2.16 µM in assay [5]; 0.454 µM in assay [6]. Also, the GI50 was 0.324 µM in assay [7], 4.86 µM in assay [8], 1.03 µM in assay [9] and 0.289 µM in [10]. For the same compound, the TGI was greater than 100 µM in [1]; greater than 100 µM in [2]; greater than 100 µM in [3]; greater than 100 µM in assay [4]; greater than 100 µM in assay [5]; 4.79 µM in assay [6]. In addition, the TGI was 3.05 µM in assay [7], greater than 100 µM in assay [8], 3.69 µM in [9] and 2.15 µM in [10].

Consider `Cc1nc2sc(C(=O)Nc3cccc(Br)c3C)c(N)c2cc1C(O)c1ccccc1` (stereo not given), for which the GI50 in assay [1] is 0.0198 µM; in assay [2], 0.0371 µM; in [3], 0.0566 µM; in [4], 0.0743 µM; in assay [5], 0.0643 µM; in assay [6], 0.0422 µM. Moreover, the GI50 in assay [7] was 0.0556 µM; in [8] it was 0.0487 µM; in [9], 0.03 µM; in assay [10], 0.0496 µM. Besides, the TGI worked out at 0.0552 µM in [1]; 11.8 µM in assay [2]; 9.59 µM in assay [3]; 14.3 µM in [4]; 12.5 µM in [5]; 5.16 µM in assay [6]. Moreover, the TGI in [7] is greater than 100 µM; in [8], 13.2 µM; in assay [9], 0.0876 µM; in assay [10], 6.93 µM.

Consider `Cn1c(CCCC(=O)O)nc2cc(N(CCCl)CCCl)ccc21`, for which the GI50 in assay [1] was greater than 75.5 µM; in assay [2] it was greater than 80.5 µM; in [3], 52.5 µM; in [4] it was greater than 77.3 µM; in assay [5], greater than 100 µM; in assay [6], greater than 80.6 µM. The GI50 in assay [7] was 3.6 µM; in assay [8], 70 µM; in assay [9], greater than 51.2 µM; in assay [10], greater than 58.8 µM. Moreover, the TGI in assay [1], in assay [2], in [3], in assay [4], in assay [5] and in assay [6] was greater than 100 µM each time. Moreover, the TGI in [7] was 22.6 µM; in assay [8] it was greater than 100 µM; in [9], greater than 85.3 µM; in assay [10], greater than 100 µM.

Take `Cc1cc(O)ccc1C1=NN(c2ccc(S(N)(=O)=O)cc2)C(=O)CC1`: the GI50 was 0.994 µM and 1.73 µM in assay [1]; 3.5 µM and 7.27 µM in assay [2]; 2.74 µM and 3.68 µM in [3]; 19.3 µM and 38.3 µM in assay [4]; 18.1 µM and 35.1 µM in assay [5]; 15.1 µM and 46.3 µM in assay [6]. Besides, the GI50 in assay [7] is 2.67 µM and 6.09 µM; in assay [8], 6.75 µM and 9.07 µM; in [9], 1.85 µM and 5 µM; in assay [10], 10.8 µM and 29.7 µM. Moreover, the TGI in [1] is 4.35 µM and 5.48 µM; in assay [2], 50 µM and > 100 µM; in [3], 50 µM and > 100 µM; in [4], 50 µM and > 100 µM; in [5], 50 µM and > 100 µM; in [6], 50 µM and > 100 µM. Further, the TGI in assay [7] was 50 µM and > 100 µM; in assay [8], 50 µM and > 100 µM; in assay [9], 50 µM and > 100 µM; in [10], 50 µM and > 100 µM.

For the compound `COC(=O)c1c[nH]c2cc(OC(C)C)c(OC(C)C)cc2c1=O`, the GI50 in assay [1], in assay [2], in [3], in assay [4], in assay [5] and in [6] was greater than 100 µM in each case. In addition, the GI50 in [7], in assay [8], in [9] and in [10] was greater than 100 µM throughout. The TGI in assay [1], in [2], in [3], in assay [4], in assay [5] and in assay [6] was greater than 100 µM in each case. Moreover, the TGI in assay [7], in assay [8], in [9] and in [10] was greater than 100 µM throughout.

Consider `O=C(Nc1nc(-c2ccc(Cl)cc2)cs1)c1cc(O)c(O)c(O)c1`, for which the GI50 is 266 µM in [1]; 195 µM in assay [2]; 158 µM in [3]; 113 µM in assay [4]; 50.6 µM in [5]; 247 µM in assay [6]. Besides, the GI50 in [7] is 130 µM; in assay [8], 183 µM; in [9], 176 µM; in assay [10], 174 µM. Further, the TGI in assay [1] turned out to be 2980 µM; in assay [2], 922 µM; in assay [3] it was 958 µM; in assay [4] it was 1140 µM; in assay [5] it was 569 µM; in [6] it was 1840 µM. Moreover, the TGI in assay [7] worked out at 840 µM; in [8] it was 939 µM; in [9] it was 907 µM; in assay [10] it was 810 µM.

For `COc1cc(C(=O)/C=C/c2cc(-c3ccc4c(c3)OCO4)n[nH]2)cc(OC)c1OC`, the GI50 is 2.28 µM in assay [1]; 1.9 µM in assay [2]; 1.81 µM in assay [3]; 2.2 µM in assay [4]; 1.34 µM in assay [5]; 2.92 µM in assay [6]. Moreover, the figures for the GI50 in assay [7], in [8] and in [9] were 2.71 µM, 1.99 µM and 2.17 µM, respectively. Besides, the TGI in assay [1] is 5.8 µM; in [2] it was 4.63 µM; in assay [3], 3.89 µM; in assay [4] it was 4.95 µM; in [5], 2.67 µM; in assay [6], 9.16 µM. For the same compound, the TGI in assay [7] turned out to be 8.36 µM; in assay [8], 5.72 µM; in assay [9], 6.49 µM.

As for `O=S(=O)(NC1=NCCN1C(=S)SN1CCn2c1nsc2=S)c1ccc(Oc2ccccc2)cc1`, the GI50 in assay [1] is 30.4 µM; in assay [2], 51.2 µM; in assay [3] it was 39.3 µM; in [4], 81.3 µM; in assay [5] it was greater than 100 µM; in [6] it was 31.7 µM. Further, the GI50 in assay [8] was 31.8 µM; in [9] it was 2.78 µM; in assay [10] it was 51 µM. Besides, the TGI in assay [1], in [2], in assay [3], in [4], in assay [5] and in assay [6] was greater than 100 µM each time. In addition, the TGI was greater than 100 µM in assay [8], 11.3 µM in assay [9] and greater than 100 µM in [10].

As to `COc1cc(-c2nn(-c3ccc(NC(=O)Nc4cc(C(F)(F)F)cc(C(F)(F)F)c4)cc3)cc2-c2ccncc2)ccc1Cl`, the GI50 in assay [1] is 1.88 µM; in assay [2] it was 1.65 µM; in [3], 1.55 µM; in [4], 1.94 µM; in [5], 1.34 µM; in assay [6], 3.39 µM. Further, the GI50 was 3.28 µM in [7], 2.65 µM in [8] and 3.04 µM in assay [9]. Moreover, the TGI in assay [1] is 3.99 µM; in [2], 3.39 µM; in assay [3], 3.4 µM; in [4] it was 7.86 µM; in assay [5], 3.22 µM; in [6], 11.2 µM. Moreover, the TGI in assay [7] is greater than 100 µM; in assay [8] it was 8.25 µM; in [9], greater than 100 µM.

Regarding `COC(=O)C1C(C(=O)O)C2(c3ccccc3)C(=O)C1(c1ccccc1)C(c1ccccc1)=C2c1ccccc1` (stereo not given), the GI50 in assay [1] is 24.4 µM; in assay [2], 19.6 µM; in [3], 15.5 µM; in assay [4], 25.8 µM; in [5] it was 17.9 µM; in [6], 16.9 µM. The GI50 was 14.5 µM in assay [7], 17.2 µM in assay [8] and 27.8 µM in [10]. For the same compound, the TGI in [1] was 58.9 µM; in assay [2] it was 35.2 µM; in assay [3], 29.9 µM; in assay [4], 88.1 µM; in assay [5], 36 µM; in assay [6], 34 µM. Further, the TGI in assay [7] was 36 µM; in assay [8] it was 33 µM; in assay [10], 89.7 µM.

On to `CCOc1cc(-c2nncn2C)ccc1Nc1ncc2cc(C)nc(NCC(C)(C)C)c2n1`, for which the GI50 in assay [1] was greater than 100 µM; in assay [2] it was 0.0849 µM; in assay [3], greater than 100 µM; in assay [6], greater than 30.7 µM; in assay [8] it was greater than 100 µM; in assay [9], greater than 100 µM. In [10], the GI50 is 1.1 µM. For the same compound, the TGI in [1], in [2], in assay [3], in assay [4], in assay [6] and in assay [7] was greater than 100 µM each time. For the same compound, the TGI in assay [8], in assay [9] and in [10] was greater than 100 µM throughout.

Regarding `Nc1ccccc1C#C/C=C\C#Cc1ccccc1C#CCO`, the GI50 was 1.51 µM in assay [1]; 8.3 µM in assay [2]; 5.69 µM in [3]; 6.11 µM in assay [4]; 6.69 µM in assay [5]; 15.8 µM in assay [6]. The GI50 is 0.382 µM in assay [8], 8.49 µM in assay [9] and 1.36 µM in assay [10]. In addition, the TGI in [1] was 4.21 µM; in assay [2], 24.7 µM; in assay [3] it was 15.3 µM; in assay [4], 18.3 µM; in assay [5], greater than 50 µM; in assay [6], greater than 50 µM. In addition, the TGI in assay [8] is greater than 50 µM; in assay [9] it was greater than 50 µM; in assay [10], 8.97 µM.

In the case of `COC(=O)[C@]12CC[C@@H](C)[C@H](C)[C@@H]1C1=CC[C@@H]3[C@@]4(C)C(C=O)=C[C@@](C)(CO)[C@@H]4[C@H](O)C[C@@]3(C)[C@]1(C)CC2`, the GI50 is 3.29 µM in assay [1]; 2.76 µM in assay [2]; 3.71 µM in assay [3]; 3.47 µM in [4]; 2.28 µM in assay [5]; 4.77 µM in [6]. Besides, the figures for the GI50 in [7], in assay [8] and in assay [10] were 2.79 µM, 4.25 µM and 2.77 µM, respectively. Moreover, the TGI in assay [1] came out at 13.4 µM; in [2], 8.97 µM; in [3], 14.8 µM; in assay [4], 12.2 µM; in assay [5] it was 12.2 µM; in [6], 16.5 µM. Moreover, the TGI is 8.73 µM in [7], 21 µM in [8] and 11.2 µM in assay [10].

Regarding `NCCCNc1nc2ccccc2c2c(=O)c3cc(F)ccc3sc12`, the GI50 was 1.75 µM in assay [1]; 1.43 µM in assay [2]; 1.62 µM in assay [3]; 1.58 µM in assay [4]; 1.27 µM in assay [5]; 1.73 µM in assay [6]. Besides, the GI50 is 1.42 µM in assay [8] and 1.43 µM in assay [10]. The TGI in [1] came to 3.27 µM; in [2] it was 2.77 µM; in assay [3] it was 3.01 µM; in assay [4] it was 2.93 µM; in assay [5], 2.57 µM; in assay [6] it was 3.21 µM. The TGI in assay [8] worked out at 2.9 µM; in [10], 2.83 µM.
